From patent US10206908B2, “3-(1H-pyrrolo[3,2-C]pyridin-2-YL)-1H-pyrazolo[3,4-C]pyridines and therapeutic uses thereof” (Samumed, LLC, priority 2015, dated 2019)

How the values were obtained:
Format in all cases: cell-based
[1] = system: primary human fibroblasts derived from IPF patients (LL29 cells) treated with TGF-β1; test: Inhibition of the fibrotic process: αSMA staining in TGF-β1 treated LL29 fibroblasts; settings: Fibroblast; for EC50: 96 h, % αSMA positive LL29 cells, TGF-β1 20 ng/mL, 4 days; for inhibition at 10 µM: read-out: percent inhibition at 10 μM
Experimental: Representative compounds were screened using primary human fibroblasts (derived from IPF patients) treated with TGF-β1 to determine their ability to inhibit the fibrotic process.
LL29 cells are plated at 1,500 cells/well in 80 μL/well F12 medium supplemented with 1% Fetal Bovine Serum. […] Wells treated with TGF-β1 and containing DMSO were used as controls. […] Following incubation for 4 days, SYTOX green nucleic acid stain (Life Technologies [Thermo Fisher Scientific]) was added to the wells at a final concentration of 1 μM and incubated at room temperature for 30 min.

[2] = system: SW480 colon cancer cells; test: Cell viability assay (CellTiter-Blue) in SW480 colon cancer cells; settings: Homo sapiens; for EC50: 96 h, SW480 cell viability, four days; for inhibition at 10 µM: SW480, read-out: percent inhibition at 10 μM
Experimental: Representative compounds were screened using the following assay procedure to assess the effect on cell viability as described below.
Approximately 2×10^3 SW480 colon cancer cells were seeded into each well and allowed to incubate in the presence or absence of compound for four days at 37° C./5% CO2. Eight replicates of DMSO-treated cells served as controls and cells treated with compound were performed in duplicate.
After incubation, 20 μL of CellTiter-Blue (Promega) was added to each well allowed to incubate for approximately 3 hours. This reagent was a buffered solution which contains resazurin, metabolically active cells were able to reduce rezarurin (blue) into resorufin (pink) which was highly fluorescent. This measured fluorescence was used as a readout for cell viability.

[3] = system: IL-6 (THP-1 cells); test: IL-6 inhibition in LPS-stimulated THP-1 monocytes (HTRF); settings: Homo sapiens; for inhibition at 10 µM: THP-1, read-out: percent inhibition at 10 μM; for EC50: IL-6, THP-1 cells, LPS 500 ng/mL, 22 hours
Experimental: Compound Screening: THP-1 cells were cultured in basal media with 1% FBS for 24 hours before the start of the assay. […] THP-1 cells were plated at 5000 cells/well in the 384-well plates and incubated at 37° C. for 2 h. 500 ng/mL of LPS was added after 2 hours and cells were incubated for another 22 hours at 37° C. Plates were spun in a centrifuge for 1 minute at […] and a mixture of anti-IL6 XL665, and anti-IL6 Cryptate diluted in reconstitution buffer (Cisbio Inc.) was added to each well. Following incubation for 3 hrs at room temperature, Homogeneous Time-Resolved Fluorescence (HTRF) was measured using the Envision (Perkin Elmer) at 665 nm and […]. The ratio of fluorescence at 665 nm to 620 nm was used as a readout for IL6 quantification. All samples were processed in duplicate. Readings were normalized to DMSO treated cells and normalized activities were utilized for EC50 calculations using the dose-response log (inhibitor) vs. response-variable slope (four parameters) nonlinear regression feature available in GraphPad Prism 5.0 (or Dotmatics).

[4] = system: Wnt activity (Sp5-Luc reporter, SW480 colon carcinoma cells); test: Screening assay for Wnt activity: Sp5-Luc reporter gene assay in SW480 colon carcinoma cells; settings: Homo sapiens; for EC50: Sp5-Luc reporter, SW480 cells, overnight incubation; for inhibition at 10 µM: SW480, read-out: percent inhibition at 10 μM
Source text: The screening assay for Wnt activity is described as follows. Reporter cell lines can be generated by stably transducing cancer cell lines (e.g., colon cancer) or primary cells (e.g., IEC-6 intestinal cells) with a lentiviral construct that includes a Wnt-responsive promoter driving expression of the firefly luciferase gene.
SW480 colon carcinoma cells were transduced with a lentiviral vector expressing luciferase with a human Sp5 promoter consisting of a sequence of eight TCF/LEF binding sites. SW480 cells stably expressing the Sp5-Luc reporter gene and a hygromycin resistance gene were selected by treatment with 150 μg/mL of hygromycin for 7 days. These stably transduced SW480 cells were expanded in cell culture and used for all further screening activities. […] For Sp5-Luc reporter gene assays, the cells were plated at 4,000 cells/well in 384-well plates with medium containing 1% fetal bovine serum and incubated overnight at 37° C. and 5% CO2. Following incubation, 20 μl of BrightGlo luminescence reagent (Promega) was added to each well of the 384-well assay plates. The plates were placed on an orbital shaker for 2 min and then luminescence was quantified using the Envision (Perkin Elmer) plate reader. Readings were normalized to DMSO only treated cells, and normalized activities were utilized for EC50 calculations using the dose-response log (inhibitor) vs. response-variable slope (four parameters) nonlinear regression feature available in GraphPad Prism 5.0 (or Dotmatics).

EC50 [2] [µM]	EC50 [3] [µM]	EC50 [4] [µM]	Compound	EC50 [1] [µM]	inhibition at 10 µM [2] [%]	inhibition at 10 µM [3] [%]	inhibition at 10 µM [1] [%]	inhibition at 10 µM [4] [%]
> 10	> 10	> 10	CC(C)CC(=O)Nc1cncc(-c2cc3c(-c4cc5c(-c6cc(F)cc(CNS(C)(=O)=O)c6)nccc5[nH]4)n[nH]c3cn2)c1 [Compound 478, N-(5-(3-(4-(3-Fluoro-5-(methylsulfonamidomethyl)phenyl)-1H-pyrrolo[3,2-c]pyridin-2-yl)-1H-pyrazolo[3,4-c]pyridin-5-yl)pyridin-3-yl)-3-methylbutanamide]	> 10	6.3	41.3	29	38.7
> 10	> 10	> 10	CN1CCN(c2nccc3[nH]c(-c4n[nH]c5cnc(-c6cncc(NC(=O)CC7CCNCC7)c6)cc45)cc23)CC1 [Compound 641, N-(5-(3-(4-(4-Methylpiperazin-1-yl)-1H-pyrrolo[3,2-c]pyridin-2-yl)-1H-pyrazolo[3,4-c]pyridin-5-yl)pyridin-3-yl)-2-(piperidin-4-yl)acetamide]	5.12	4.4	14.4	–	7.9
> 10	3.86	> 10	CS(=O)(=O)NCc1cc(F)cc(-c2nccc3[nH]c(-c4n[nH]c5cnc(-c6cncc(CN7CCCC7)c6)cc45)cc23)c1 [Compound 490, N-(3-Fluoro-5-(2-(5-(5-(pyrrolidin-1-ylmethyl)pyridin-3-yl)-1H-pyrazolo[3,4-c]pyridin-3-yl)-1H-pyrrolo[3,2-c]pyridin-4-yl)benzyl)methanesulfonamide]	> 10	5.5	–	0	28.7
1.1	3.81	1.44	c1cc2[nH]c(-c3n[nH]c4cnc(-c5cncc(OC6CCCCC6)c5)cc34)cc2c(N2CCCCC2)n1 [Compound 607, 5-(5-(Cyclohexyloxy)pyridin-3-yl)-3-(4-(piperidin-1-yl)-1H-pyrrolo[3,2-c]pyridin-2-yl)-1H-pyrazolo[3,4-c]pyridine]	1.14	–	–	–	–
> 10	> 10	> 10	c1cc2[nH]c(-c3n[nH]c4cnc(-c5cncc(CN6CCCC6)c5)cc34)cc2c(N2CCCCC2)n1 [Compound 182, 3-(4-(Piperidin-1-yl)-1H-pyrrolo[3,2-c]pyridin-2-yl)-5-(5-(pyrrolidin-1-ylmethyl)pyridin-3-yl)-1H-pyrazolo[3,4-c]pyridine]	> 10	13	0	0	12.7
4.14	3.3	4.04	c1ccc(-c2cc3c(-c4cc5c(-c6cccs6)nccc5[nH]4)n[nH]c3cn2)nc1 [Compound 364, 5-(Pyridin-2-yl)-3-(4-(thiophen-2-yl)-1H-pyrrolo[3,2-c]pyridin-2-yl)-1H-pyrazolo[3,4-c]pyridine]	3.12	–	–	–	–
0.844	1.01	1.03	c1cncc(-c2cc3c(-c4cc5c(-c6ccoc6)nccc5[nH]4)n[nH]c3cn2)c1 [Compound 312, 3-(4-(Furan-3-yl)-1H-pyrrolo[3,2-c]pyridin-2-yl)-5-(pyridin-3-yl)-1H-pyrazolo[3,4-c]pyridine]	0.294	–	–	–	–
> 10	> 10	> 10	CC(C)(C)CC(=O)Nc1cncc(-c2cc3c(-c4cc5c(-c6cc(F)cc(CNS(C)(=O)=O)c6)nccc5[nH]4)n[nH]c3cn2)c1 [Compound 492, N-(5-(3-(4-(3-Fluoro-5-(methylsulfonamidomethyl)phenyl)-1H-pyrrolo[3,2-c]pyridin-2-yl)-1H-pyrazolo[3,4-c]pyridin-5-yl)pyridin-3-yl)-3,3-dimethylbutanamide]	> 10	8.6	4.6	1.8	17.3

More lines, now with the values behind:

Compound	EC50 [2] [µM]	EC50 [3] [µM]	EC50 [4] [µM]	EC50 [1] [µM]	inhibition at 10 µM [2] [%]	inhibition at 10 µM [3] [%]	inhibition at 10 µM [1] [%]	inhibition at 10 µM [4] [%]
c1cc(-c2cc3c(-c4cc5c(-c6ccncc6)nccc5[nH]4)n[nH]c3cn2)ccn1 [Compound 130, 5-(Pyridin-4-yl)-3-(4-(pyridin-4-yl)-1H-pyrrolo[3,2-c]pyridin-2-yl)-1H-pyrazolo[3,4-c]pyridine]	> 10	> 10	0.418	0.096	36.6	0	–	–
O=C(Nc1cncc(-c2cc3c(-c4cc5c(-c6cccc(F)c6)nccc5[nH]4)n[nH]c3cn2)c1)C1CCCCC1 [Compound 23, N-(5-(3-(4-(3-Fluorophenyl)-1H-pyrrolo[3,2-c]pyridin-2-yl)-1H-pyrazolo[3,4-c]pyridin-5-yl)pyridin-3-yl)cyclohexanecarboxamide]	1.44	2.03	1.23	0.678	–	–	–	–
CC(C)(C)C(=O)Nc1cncc(-c2cc3c(-c4cc5c(-c6cccc(F)c6)nccc5[nH]4)n[nH]c3cn2)c1 [Compound 8, N-(5-(3-(4-(3-Fluorophenyl)-1H-pyrrolo[3,2-c]pyridin-2-yl)-1H-pyrazolo[3,4-c]pyridin-5-yl)pyridin-3-yl)pivalamide]	1.72	0.94	1.18	0.627	–	–	–	–
CC(C)CC(=O)Nc1cncc(-c2cc3c(-c4cc5c(N6CCCCC6)nccc5[nH]4)n[nH]c3cn2)c1 [Compound 170, 3-Methyl-N-(5-(3-(4-(piperidin-1-yl)-1H-pyrrolo[3,2-c]pyridin-2-yl)-1H-pyrazolo[3,4-c]pyridin-5-yl)pyridin-3-yl)butanamide]	1.5	1.78	1.25	2.36	–	–	–	–
CC(C)CC(=O)Nc1cncc(-c2cc3c(-c4cc5c(-c6cccnc6)nccc5[nH]4)n[nH]c3cn2)c1 [Compound 86, 3-Methyl-N-(5-(3-(4-(pyridin-3-yl)-1H-pyrrolo[3,2-c]pyridin-2-yl)-1H-pyrazolo[3,4-c]pyridin-5-yl)pyridin-3-yl)butanamide]	> 10	> 10	> 10	1.92	3.6	0	–	29.9
CCCCC(=O)Nc1cncc(-c2cc3c(-c4cc5c(-c6cccc(F)c6)nccc5[nH]4)n[nH]c3cn2)c1 [Compound 19, N-(5-(3-(4-(3-Fluorophenyl)-1H-pyrrolo[3,2-c]pyridin-2-yl)-1H-pyrazolo[3,4-c]pyridin-5-yl)pyridin-3-yl)pentanamide]	1.33	1.09	1.14	0.96	–	–	–	–
O=C(Cc1ccccc1)Nc1cncc(-c2cc3c(-c4cc5c(N6CCCCC6)nccc5[nH]4)n[nH]c3cn2)c1 [Compound 178, 2-Phenyl-N-(5-(3-(4-(piperidin-1-yl)-1H-pyrrolo[3,2-c]pyridin-2-yl)-1H-pyrazolo[3,4-c]pyridin-5-yl)pyridin-3-yl)acetamide]	6.5	9.32	4.23	> 10	–	–	0	–
CC(C)Nc1cncc(-c2cc3c(-c4cc5c(-c6ccc(F)cc6)nccc5[nH]4)n[nH]c3cn2)c1 [Compound 40, 5-(3-(4-(4-Fluorophenyl)-1H-pyrrolo[3,2-c]pyridin-2-yl)-1H-pyrazolo[3,4-c]pyridin-5-yl)-N-isopropylpyridin-3-amine]	0.773	0.38	0.343	0.056	–	–	–	–
